Earlier results on one compound are cited in US7511157B2, “Hepatitis C inhibitor dipeptide analogs” (Boehringer Ingelheim International GmbH, priority 2004, dated 2009).

SMILES strings stand for the structures.

The data set concerns hepatitis C virus. As to conditions: two day clinical trial; Gastroenterology (2004) 127(5): 1347-1355.

As to `COc1ccc2c(O[C@@H]3C[C@H]4C(=O)N[C@]5(C(=O)O)C[C@H]5/C=C\CCCCC[C@H](NC(=O)OC5CCCC5)C(=O)N4C3)cc(-c3csc(NC(C)C)n3)nc2c1` [BILN 2061], the “reduction of viral loads in patients” value is on record as “effective in rapidly reducing viral loads”.
